Results as given in the Kinase Knowledgebase extract (Sharma et al. 2016).
pIC50: −log10 of the molar value.

Target: ROCK2 (human) (UniProt O75116)
Assay: Inhibition of ROCK2 Kinase Activity

ROCK2 (human), sequence (O75116 whole entry, looked up): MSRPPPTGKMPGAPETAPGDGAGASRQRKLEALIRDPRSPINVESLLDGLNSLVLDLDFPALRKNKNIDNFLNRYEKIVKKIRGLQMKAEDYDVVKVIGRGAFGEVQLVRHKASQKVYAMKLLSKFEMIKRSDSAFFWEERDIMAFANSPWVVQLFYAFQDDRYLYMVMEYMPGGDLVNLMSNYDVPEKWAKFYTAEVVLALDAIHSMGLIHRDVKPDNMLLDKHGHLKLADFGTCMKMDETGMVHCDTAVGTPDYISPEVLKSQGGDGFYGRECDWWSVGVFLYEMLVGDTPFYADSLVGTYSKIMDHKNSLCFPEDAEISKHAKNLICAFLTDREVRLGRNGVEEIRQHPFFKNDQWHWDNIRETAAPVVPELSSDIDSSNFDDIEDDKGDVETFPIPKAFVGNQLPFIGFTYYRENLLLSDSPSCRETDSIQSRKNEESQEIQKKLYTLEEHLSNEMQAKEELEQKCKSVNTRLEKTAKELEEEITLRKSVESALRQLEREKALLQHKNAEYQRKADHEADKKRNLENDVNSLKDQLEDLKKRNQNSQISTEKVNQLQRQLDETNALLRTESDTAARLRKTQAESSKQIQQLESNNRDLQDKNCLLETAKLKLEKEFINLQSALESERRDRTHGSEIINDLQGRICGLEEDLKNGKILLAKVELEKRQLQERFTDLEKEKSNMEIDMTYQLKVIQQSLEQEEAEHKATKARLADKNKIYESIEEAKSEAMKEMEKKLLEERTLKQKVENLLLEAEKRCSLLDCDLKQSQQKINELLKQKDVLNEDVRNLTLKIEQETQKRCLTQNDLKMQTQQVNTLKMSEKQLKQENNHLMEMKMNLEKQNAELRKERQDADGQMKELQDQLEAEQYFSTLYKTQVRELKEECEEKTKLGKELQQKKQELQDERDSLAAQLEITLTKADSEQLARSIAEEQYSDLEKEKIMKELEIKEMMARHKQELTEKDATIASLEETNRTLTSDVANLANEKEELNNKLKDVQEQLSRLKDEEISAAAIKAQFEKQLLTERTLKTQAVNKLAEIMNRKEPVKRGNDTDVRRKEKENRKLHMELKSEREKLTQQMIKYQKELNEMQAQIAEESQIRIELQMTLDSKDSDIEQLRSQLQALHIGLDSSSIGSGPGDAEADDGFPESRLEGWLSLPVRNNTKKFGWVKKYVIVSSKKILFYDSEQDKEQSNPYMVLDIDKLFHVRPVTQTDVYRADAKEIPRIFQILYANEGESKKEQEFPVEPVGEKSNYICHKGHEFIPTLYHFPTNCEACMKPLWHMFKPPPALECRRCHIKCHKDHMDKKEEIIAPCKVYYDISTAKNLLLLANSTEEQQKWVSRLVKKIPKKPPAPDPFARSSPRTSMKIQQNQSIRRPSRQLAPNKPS

| Structure (SMILES) | pIC50 |
| --- | --- |
| O=C(NCc1nc(-c2c[nH]c3ncccc23)n[nH]1)c1ccccc1-c1ccccc1 | < 5.30 |
| O=C(NCc1nc(-c2ccncc2)n[nH]1)c1cc2cc(Cl)ccc2o1 | < 5.30 |
| Cc1cccc(C(=O)NCc2nc(-c3ccncc3)n[nH]2)c1[N+](=O)[O-] | < 5.30 |
| COc1cccc(C(=O)NCc2nc(-c3ccncc3)n[nH]2)c1 | < 5.30 |
| O=C(C=Cc1ccccc1O)NCc1nc(-c2ccncc2)n[nH]1 | < 5.30 |
| O=C(NCc1nc(-c2c[nH]c3ncccc23)n[nH]1)c1cnc(O)c(Cl)c1 | < 5.30 |
| COc1ccc(C(=O)NCc2nc(-c3c[nH]c4ncccc34)n[nH]2)c(O)c1 | < 5.30 |
| Cc1cccc([N+](=O)[O-])c1C(=O)NCc1nc(-c2ccncc2)n[nH]1 | < 5.30 |
| O=C(NCc1nc(-c2c[nH]c3ncccc23)n[nH]1)c1ccc(Cl)cc1Cl | < 5.30 |
| O=C(NCc1nc(-c2ccncc2)n[nH]1)c1ccccc1OCc1ccccc1 | < 5.30 |
| O=C(NCc1nc(-c2ccncc2)n[nH]1)c1ccc2ncccc2c1 | < 5.30 |
| COc1ccc(O)c(C(=O)NCc2nc(-c3ccncc3)n[nH]2)c1 | ≥ 5.30 |
| CCC(=O)C(=O)NCc1nc(-c2ccncc2)n[nH]1 | < 5.30 |
| O=C(NCc1nc(-c2c[nH]c3ncccc23)n[nH]1)c1cc(Cl)ccc1[N+](=O)[O-] | < 5.30 |
| CC(=O)Oc1ccc(C(=O)NCc2nc(-c3ccncc3)n[nH]2)cc1 | ≥ 5.30 |
| O=C(NCc1nc(-c2ccncc2)n[nH]1)c1ccccc1Cc1ccccc1 | < 5.30 |
| Cc1ccccc1OCC(=O)NCc1nc(-c2c[nH]c3ncccc23)n[nH]1 | < 5.30 |
| N#CCC(=O)NCc1nc(-c2c[nH]c3ncccc23)n[nH]1 | < 5.30 |
| O=C(NCc1nc(-c2c[nH]c3ncccc23)n[nH]1)c1cccc(O)c1O | < 5.30 |
| O=C(NCc1c[nH]c(-c2ccncc2)n1)c1cccs1 | < 5.30 |
| CC(C)(C)OC(=O)N1CCCC1C(=O)NCc1nc(-c2c[nH]c3ncccc23)n[nH]1 (configuration not stated) | < 5.30 |
| O=C(NCc1nc(-c2c[nH]c3ncccc23)n[nH]1)c1cc(Cl)c(O)c(Cl)c1 | < 5.30 |

| Structure (SMILES) | pIC50 |
| --- | --- |
| CCOc1ccccc1C(=O)NCc1nc(-c2c[nH]c3ncccc23)n[nH]1 | < 5.30 |
| O=C(NCc1nc(-c2ccncc2)n[nH]1)c1ncc[nH]1 | < 5.30 |
| O=C(NCc1nc(-c2c[nH]c3ncccc23)n[nH]1)c1ccc(Br)cc1 | < 5.30 |
| CC(C)(C)OC(=O)NCC(=O)NCc1nc(-c2ccncc2)n[nH]1 | < 5.30 |
| CCCCc1ccc(C(=O)NCc2nc(-c3c[nH]c4ncccc34)n[nH]2)cc1 | < 5.30 |
| O=C(NCc1nc(-c2c[nH]c3ncccc23)n[nH]1)c1cccc(Cl)c1Cl | < 5.30 |
| CC(C(=O)NCc1nc(-c2c[nH]c3ncccc23)n[nH]1)c1cccc(C(=O)OCc2ccccc2)c1 (configuration not stated) | < 5.30 |
| O=C(NCc1nc(-c2ccncc2)n[nH]1)c1cccc(F)c1 | < 5.30 |
| Cc1ccc(C)c(C(=O)NCc2nc(-c3ccncc3)n[nH]2)c1 | < 5.30 |
| O=C(Cc1ccc(C(F)(F)F)cc1)NCc1nc(-c2c[nH]c3ncccc23)n[nH]1 | < 5.30 |
| CCC(C)C(NC(=O)OC(C)(C)C)C(=O)NCc1nc(-c2ccncc2)n[nH]1 (configuration not stated) | < 5.30 |
| Cc1ccc(C(=O)NCc2nc(-c3c[nH]c4ncccc34)n[nH]2)c(C)c1 | < 5.30 |
| CC(C)CC(=O)NCc1nc(-c2c[nH]c3ncccc23)n[nH]1 | < 5.30 |
| O=C(CCc1nc2ccccc2[nH]1)NCc1nc(-c2c[nH]c3ncccc23)n[nH]1 | < 5.30 |
| O=C(NCc1nc(-c2c[nH]c3ncccc23)n[nH]1)c1cnc[nH]1 | < 5.30 |
| CC(C)(C)OC(=O)NC(Cc1ccccn1)C(=O)NCc1nc(-c2ccncc2)n[nH]1 (configuration not stated) | < 5.30 |
| O=C(NCc1nc(-c2c[nH]c3ncccc23)n[nH]1)c1cccc(Cl)c1[N+](=O)[O-] | < 5.30 |
| CC(C)(C)OC(=O)NCC[C@H](NC(=O)c1ccc(O)cc1O)c1nc(-c2ccncc2)n[nH]1 | ≥ 5.30 |
| O=C(NCc1nc(-c2c[nH]c3ncccc23)n[nH]1)c1cc2ccccc2cc1O | < 5.30 |
| O=C(NCc1nc(-c2c[nH]c3ncccc23)n[nH]1)c1cscn1 | < 5.30 |
| CC(C)(C)C(=O)Oc1ccc(C(=O)NCc2nc(-c3ccncc3)n[nH]2)cc1 | < 5.30 |
| COc1cccc(O)c1C(=O)NCc1nc(-c2ccncc2)n[nH]1 | ≥ 5.30 |

| Structure (SMILES) | pIC50 |
| --- | --- |
| O=C(NCc1nc(-c2c[nH]c3ncccc23)n[nH]1)c1cc2ccccc2s1 | < 5.30 |
| O=C(NCc1nc(-c2c[nH]c3ncccc23)cs1)c1cccs1 | ≥ 5.30 |
| CN(Cc1nc(-c2ccncc2)n[nH]1)C(=O)c1cccs1 | < 5.30 |
| O=C(CCc1cccc(Br)c1)NCc1nc(-c2c[nH]c3ncccc23)n[nH]1 | < 5.30 |
| O=C(NCc1nc(-c2c[nH]c3ncccc23)n[nH]1)C1=C(O)CC=CC([N+](=O)[O-])=C1 | < 5.30 |
| O=C(NCc1nc(-c2ccncc2)n[nH]1)c1cccc2cc[nH]c12 | ≥ 5.30 |
| O=C(NCc1nc(-c2ccncc2)n[nH]1)c1c(F)cccc1Cl | < 5.30 |
| CCN(CC)c1ccc(C(=O)NCc2nc(-c3c[nH]c4ncccc34)n[nH]2)cc1 | < 5.30 |
| CC(C)(C)OC(=O)N1CC(O)CC1C(=O)NCc1nc(-c2ccncc2)n[nH]1 (configuration not stated) | < 5.30 |
| O=S(=O)(NCc1nc(-c2ccncc2)n[nH]1)c1ccc(OCc2ccccc2)cc1 | < 5.30 |
| CC1=NN(c2ccc(C(=O)NCc3nc(-c4c[nH]c5ncccc45)n[nH]3)cc2)C(=O)C1 | < 5.30 |
| O=C(NCc1nc(-c2ccncc2)n[nH]1)c1ccccc1C(F)(F)F | < 5.30 |
| COC1=CC(OC)(C(=O)NCc2nc(-c3ccncc3)n[nH]2)C=C1 (configuration not stated) | < 5.30 |
| CC(O)C(=O)NCc1nc(-c2c[nH]c3ncccc23)n[nH]1 (configuration not stated) | < 5.30 |
| CCCCCCCC(=O)NCc1nc(-c2ccncc2)n[nH]1 | < 5.30 |
| CC(C(=O)NCc1nc(-c2ccncc2)n[nH]1)c1ccc(-c2ccccc2)c(F)c1 (configuration not stated) | < 5.30 |
| CC(C)(C)OC(=O)NC(Cc1ccccc1)C(=O)NCc1nc(-c2ccncc2)n[nH]1 (configuration not stated) | < 5.30 |
| O=C(NCc1nc(-c2c[nH]c3ncccc23)n[nH]1)c1c(O)ccc2ccccc12 | < 5.30 |
| O=Cc1ccccc1C(=O)NCc1nc(-c2c[nH]c3ncccc23)n[nH]1 | < 5.30 |
| O=C(NCc1nc(-c2c[nH]c3ncccc23)n[nH]1)c1cccc(O)c1 | < 5.30 |
| COc1ccc(C(=O)NCc2nc(-c3ccncc3)n[nH]2)c(O)c1 | ≥ 5.30 |
| O=C(NCc1nc(-c2c[nH]c3ncccc23)n[nH]1)C(O)CCl (configuration not stated) | < 5.30 |

| Structure (SMILES) | pIC50 |
| --- | --- |
| CCc1ccc(C(=O)NCc2nc(-c3c[nH]c4ncccc34)n[nH]2)cc1 | < 5.30 |
| O=C(CCc1ccccc1Br)NCc1nc(-c2ccncc2)n[nH]1 | < 5.30 |
| Cc1cc(C)cc(C(=O)NCc2nc(-c3c[nH]c4ncccc34)n[nH]2)c1 | < 5.30 |
| O=C(NCc1nc(-c2c[nH]c3ncccc23)n[nH]1)c1ccccc1C(=O)c1ccc(O)cc1 | < 5.30 |
| Cc1cccc(C(=O)NCc2c[nH]c(-c3ccncc3)n2)c1O | < 5.30 |
| O=C(NCc1nc(-c2ccncc2)n[nH]1)c1ccccc1C(=O)c1ccc(O)cc1 | < 5.30 |
| O=C(NCc1nc(-c2c[nH]c3ncccc23)n[nH]1)c1cc(Cl)ccc1O | < 5.30 |
| COc1cc(C=CC(=O)NCc2nc(-c3ccncc3)n[nH]2)ccc1O | < 5.30 |
| O=C(Cc1c(F)cccc1F)NCc1nc(-c2ccncc2)n[nH]1 | < 5.30 |
| Cc1cccc(C(=O)NCc2nc(-c3c[nH]c4ncccc34)n[nH]2)c1C | < 5.30 |
| O=C(NCc1nc(-c2ccncc2)n[nH]1)c1ccccn1 | < 5.30 |
| O=S(=O)(NCc1nc(-c2ccncc2)n[nH]1)c1ccc(O)cc1 | < 5.30 |
| c1ccc(COc2ccc(CNCc3nc(-c4ccncc4)n[nH]3)cc2)cc1 | < 5.30 |
| O=C(NCc1nc(-c2c[nH]c3ncccc23)n[nH]1)C1=CCCC1 | < 5.30 |
| O=C(C=Cc1ccccc1)NCc1nc(-c2ccncc2)n[nH]1 | < 5.30 |
| O=C(NCc1nc(-c2c[nH]c3ncccc23)n[nH]1)c1cccc(Oc2ccccc2)c1 | < 5.30 |
| O=C(Cc1ccccc1O)NCc1nc(-c2ccncc2)n[nH]1 | < 5.30 |
| O=C(NCc1nc(-c2c[nH]c3ncccc23)n[nH]1)c1ccccc1[N+](=O)[O-] | < 5.30 |
| COc1cc(C(=O)NCc2nc(-c3ccncc3)n[nH]2)cc(OC)c1O | < 5.30 |
| COc1cc(C(=O)NCc2nc(-c3ccncc3)n[nH]2)c([N+](=O)[O-])cc1OC | < 5.30 |
| O=C(NCc1nc(-c2c[nH]c3ncccc23)n[nH]1)c1ccc(Oc2cccc(O)c2)cc1 | < 5.30 |
| CS(=O)(=O)Nc1ccccc1C(=O)NCc1nc(-c2ccncc2)n[nH]1 | < 5.30 |

| Structure (SMILES) | pIC50 |
| --- | --- |
| O=C(NCc1nc(-c2ccncc2)n[nH]1)c1cc(F)c(F)cc1Cl | < 5.30 |
| Cc1ccccc1CC(=O)NCc1nc(-c2c[nH]c3ncccc23)n[nH]1 | < 5.30 |
| CC(C)(C)C(=O)Oc1ccc(C(=O)NCc2nc(-c3ccncc3)n[nH]2)c(OC(=O)C(C)(C)C)c1 | < 5.30 |
| O=C(NCc1nc(-c2ccncc2)n[nH]1)c1ccc(Oc2ccccc2)cc1 | ≥ 5.30 |
| O=C(NCc1nc(-c2ccncc2)n[nH]1)c1cc(Cl)ccc1Cl | < 5.30 |
| Cc1cccc(CCC(=O)NCc2nc(-c3c[nH]c4ncccc34)n[nH]2)c1 | < 5.30 |
| Cc1ccsc1C(=O)NCc1nc(-c2ccncc2)n[nH]1 | ≥ 5.30 |
| CCCc1ccc(C(=O)NCc2nc(-c3c[nH]c4ncccc34)n[nH]2)cc1 | < 5.30 |
| O=C(NCc1nc(-c2ccncc2)n[nH]1)c1c(F)c(F)c(F)c(F)c1F | < 5.30 |
| O=C(Cc1ccc(O)c(Cl)c1)NCc1nc(-c2c[nH]c3ncccc23)n[nH]1 | < 5.30 |
| CC(=O)NCC(=O)NCc1nc(-c2c[nH]c3ncccc23)n[nH]1 | < 5.30 |
| CC(C)(C)OC(=O)NC[C@H](NC(=O)c1ccc(O)cc1O)c1nc(-c2ccncc2)n[nH]1 | ≥ 5.30 |
| CCOc1ccccc1C(=O)NCc1nc(-c2ccncc2)n[nH]1 | < 5.30 |
| O=C(NCc1nc(-c2ccncc2)n[nH]1)c1ccc2cccc(O)c2n1 | < 5.30 |
| CC(C)(C)OC(=O)N1CCNC(C(=O)NCc2nc(-c3c[nH]c4ncccc34)n[nH]2)C1 (configuration not stated) | < 5.30 |
| O=C(Nc1cccc2c(-c3ccncc3)n[nH]c12)c1cccs1 | < 5.30 |
| COc1cccc(C(=O)NCc2nc(-c3ccncc3)n[nH]2)c1OC | < 5.30 |
| O=C(NCc1nc(-c2c[nH]c3ncccc23)n[nH]1)c1cc(Br)ccc1Cl | < 5.30 |
| CCOC(=O)CC(=O)NCc1nc(-c2c[nH]c3ncccc23)n[nH]1 | < 5.30 |
